Laboratory results: US12310975B2, “Modulators of BCL6 proteolysis and associated methods of use” (Arvinas Operations, Inc., priority 2019, dated 2025)

molecular target: BCL6 (Homo sapiens (Human), UniProt P41182); experiment: Immunofluorescence high content imaging of BCL6 degradation in T47D cells; assay type: cell-based; conditions: class symbols A-D, read-out: EC50 (nM)*
How it was run: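 Following a 3-day incubation with serially diluted bifunctional compounds (final top 0.1 or 1 μM), T47D cells were PFA-fixed and immunostained for BCL6. Nuclear BCL6 signal was captured on a high-content imager.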

Row | SMILES | DC50 [nM]
1 | CNC(=O)COc1cc2cc(Nc3nc(N4CCC(c5cccc(OCCOCCOCCOCCOc6ccc7c(c6)CN(C6CCC(=O)NC6=O)C7=O)c5)CC4)ncc3Cl)ccc2n(C)c1=O (stereo not drawn) [compound 88, 2-((6-((5-chloro-2-(4-(3-(2-(2-(2-(2-((2-(2,6-dioxopiperidin-3-yl)-1-oxoisoindolin-5-yl)oxy)ethoxy)ethoxy)ethoxy)ethoxy)phenyl)piperidin-1-yl)pyrimidin-4-yl)amino)-1-methyl-2-oxo-1,2-dihydroquinolin-3-yl)oxy)-N-methylacetamide] | 10 to 50
2 | CNC(=O)COc1cc2cc(Nc3nc(N4CCC(c5ccccc5OCCCOCCOCCOCCOc5ccc6c(c5)CN(C5CCC(=O)NC5=O)C6=O)CC4)ncc3Cl)ccc2n(C)c1=O (stereo not drawn) [compound 90, 2-((6-((5-chloro-2-(4-(2-(3-(2-(2-(2-((2-(2,6-dioxopiperidin-3-yl)-1-oxoisoindolin-5-yl)oxy)ethoxy)ethoxy)ethoxy)propoxy)phenyl)piperidin-1-yl)pyrimidin-4-yl)amino)-1-methyl-2-oxo-1,2-dihydroquinolin-3-yl)oxy)-N-methylacetamide] | > 100
3 | CNC(=O)COc1cc2cc(Nc3nc(N4CCC(OCCOCCOCCCCOc5ccc(-c6ccc7c(c6)CN(C6CCC(=O)NC6=O)C7=O)cc5)CC4)ncc3Cl)ccc2n(C)c1=O (stereo not drawn) [compound 94, 2-((6-((5-chloro-2-(4-(2-(2-(4-(4-(2-(2,6-dioxopiperidin-3-yl)-1-oxoisoindolin-5-yl)phenoxy)butoxy)ethoxy)ethoxy)piperidin-1-yl)pyrimidin-4-yl)amino)-1-methyl-2-oxo-1,2-dihydroquinolin-3-yl)oxy)-N-methylacetamide] | > 100
4 | CNC(=O)COc1cc2cc(Nc3nc(N4CCC(Oc5cccc(OCCCCOCCOCCOc6ccc7c(c6)CN(C6CCC(=O)NC6=O)C7=O)c5)CC4)ncc3Cl)ccc2n(C)c1=O (stereo not drawn) [compound 95, 2-((6-((5-chloro-2-(4-(3-(4-(2-(2-((2-(2,6-dioxopiperidin-3-yl)-1-oxoisoindolin-5-yl)oxy)ethoxy)ethoxy)butoxy)phenoxy)piperidin-1-yl)pyrimidin-4-yl)amino)-1-methyl-2-oxo-1,2-dihydroquinolin-3-yl)oxy)-N-methylacetamide] | > 100
5 | CNC(=O)COc1cc2cc(Nc3nc(N4CCC(Oc5ccc(OCCCOCCOCCOc6ccc7c(c6)CN(C6CCC(=O)NC6=O)C7=O)cc5)CC4)ncc3Cl)ccc2n(C)c1=O (stereo not drawn) [compound 96, 2-((6-((5-chloro-2-(4-(4-(3-(2-(2-((2-(2,6-dioxopiperidin-3-yl)-1-oxoisoindolin-5-yl)oxy)ethoxy)ethoxy)propoxy)phenoxy)piperidin-1-yl)pyrimidin-4-yl)amino)-1-methyl-2-oxo-1,2-dihydroquinolin-3-yl)oxy)-N-methylacetamide] | > 100
6 | CC(=O)COc1cc2cc(Nc3nc(N4CCC(OCCOCCOCCOCCOCCOc5ccc6c(c5)CN(C5CCC(=O)NC5=O)C6=O)CC4)ncc3Cl)ccc2n(C)c1=O (stereo not drawn) [compound 98, 3-(5-((14-((1-(5-chloro-4-((1-methyl-2-oxo-3-(2-oxopropoxy)-1,2-dihydroquinolin-6-yl)amino)pyrimidin-2-yl)piperidin-4-yl)oxy)-3,6,9,12-tetraoxatetradecyl)oxy)-1-oxoisoindolin-2-yl)piperidine-2,6-dione] | 10 to 50
7 | CN(C)C(=O)COc1cc2cc(Nc3nc(N4CCC(OCCOCCOCCOCCOCCOc5ccc6c(c5)CN(C5CCC(=O)NC5=O)C6=O)CC4)ncc3Cl)ccc2n(C)c1=O (stereo not drawn) [compound 99, 2-((6-((5-chloro-2-(4-((14-((2-(2,6-dioxopiperidin-3-yl)-1-oxoisoindolin-5-yl)oxy)-3,6,9,12-tetraoxatetradecyl)oxy)piperidin-1-yl)pyrimidin-4-yl)amino)-1-methyl-2-oxo-1,2-dihydroquinolin-3-yl)oxy)-N,N-dimethylacetamide] | > 100
8 | CNC(=O)COc1cc2cc(Nc3nc(N4CCC(N(C)[C@H]5CC[C@H](CN6CCN(c7ccc8c(c7)CN(C7CCC(=O)NC7=O)C8=O)CC6)CC5)CC4)ncc3Cl)ccc2n(C)c1=O (stereo partly drawn) [compound 101, 2-((6-((5-chloro-2-(4-(((1r,4r)-4-((4-(2-(2,6-dioxopiperidin-3-yl)-1-oxoisoindolin-5-yl)piperazin-1-yl)methyl)cyclohexyl) (methyl)amino)piperidin-1-yl)pyrimidin-4-yl)amino)-1-methyl-2-oxo-1,2-dihydroquinolin-3-yl)oxy)-N-methylacetamide] | < 10
9 | CNC(=O)COc1cc2cc(Nc3nc(N4CCC(N(C)[C@H]5CC[C@@H](CN6CCN(c7ccc8c(c7)CN(C7CCC(=O)NC7=O)C8=O)CC6)CC5)CC4)ncc3Cl)ccc2n(C)c1=O (stereo partly drawn) [compound 102, 2-((6-((5-chloro-2-(4-(((1s,4s)-4-((4-(2-(2,6-dioxopiperidin-3-yl)-1-oxoisoindolin-5-yl)piperazin-1-yl)methyl)cyclohexyl) (methyl)amino)piperidin-1-yl)pyrimidin-4-yl)amino)-1-methyl-2-oxo-1,2-dihydroquinolin-3-yl)oxy)-N-methylacetamide] | < 10
10 | CN1C(=O)CCc2cc(Nc3cc(N4CCC(OCCOCCOCCOCCOCCOc5ccc6c(c5)CN(C5CCC(=O)NC5=O)C6=O)CC4)c([N+](=O)[O-])cc3Cl)ccc21 (stereo not drawn) [compound 105, 3-(5-((14-((1-(4-chloro-5-((1-methyl-2-oxo-1,2,3,4-tetrahydroquinolin-6-yl)amino)-2-nitrophenyl)piperidin-4-yl)oxy)-3,6,9,12-tetraoxatetradecyl)oxy)-1-oxoisoindolin-2-yl)piperidine-2,6-dione] | > 100
11 | CNC(=O)COc1cc2cc(Nc3nc(N4CCC(c5cn(CCOc6ccc7c(c6)C(=O)N(C6CCC(=O)NC6=O)C7=O)nn5)CC4)ncc3Cl)ccc2n(C)c1=O (stereo not drawn) [compound 106, 2-((6-((5-chloro-2-(4-(1-(2-((2-(2,6-dioxopiperidin-3-yl)-1,3-dioxoisoindolin-5-yl)oxy)ethyl)-1H-1,2,3-triazol-4-yl)piperidin-1-yl)pyrimidin-4-yl)amino)-1-methyl-2-oxo-1,2-dihydroquinolin-3-yl)oxy)-N-methylacetamide] | 10 to 50
12 | CNC(=O)COc1cc2cc(Nc3nc(N4CCC(c5cn(CCOCCOc6ccc7c(c6)C(=O)N(C6CCC(=O)NC6=O)C7=O)nn5)CC4)ncc3Cl)ccc2n(C)c1=O (stereo not drawn) [compound 107, 2-((6-((5-chloro-2-(4-(1-(2-(2-((2-(2,6-dioxopiperidin-3-yl)-1,3-dioxoisoindolin-5-yl)oxy)ethoxy)ethyl)-1H-1,2,3-triazol-4-yl)piperidin-1-yl)pyrimidin-4-yl)amino)-1-methyl-2-oxo-1,2-dihydroquinolin-3-yl)oxy)-N-methylacetamide] | 10 to 50

Now from value to molecule:

Row | DC50 [nM] | SMILES
13 | > 100 | CNC(=O)COc1cc2cc(Nc3nc(N4CCC(c5ccc(OCCCOCCOCCOc6ccc7c(c6)CN(C6CCC(=O)NC6=O)C7=O)cc5)CC4)ncc3Cl)ccc2n(C)c1=O (stereo not drawn) [compound 89, 2-((6-((5-chloro-2-(4-(4-(3-(2-(2-((2-(2,6-dioxopiperidin-3-yl)-1-oxoisoindolin-5-yl)oxy)ethoxy)ethoxy)propoxy)phenyl)piperidin-1-yl)pyrimidin-4-yl)amino)-1-methyl-2-oxo-1,2-dihydroquinolin-3-yl)oxy)-N-methylacetamide]
14 | > 100 | O=C1CCC(N2C(=O)c3ccc(N4CCN(CC5CCN(c6cc(Nc7ccc8c(c7)CCC(=O)N8)c(Cl)cc6[N+](=O)[O-])CC5)CC4)cc3C2=O)C(=O)N1 (stereo not drawn) [compound 92, 5-(4-((1-(4-chloro-2-nitro-5-((2-oxo-1,2,3,4-tetrahydroquinolin-6-yl)amino)phenyl)piperidin-4-yl)methyl)piperazin-1-yl)-2-(2,6-dioxopiperidin-3-yl)isoindoline-1,3-dione]
15 | > 100 | CNC(=O)COc1cc2cc(Nc3nc(N4CCC(OCCOCCOCCOCCCOc5ccccc5-c5ccc6c(c5)CN(C5CCC(=O)NC5=O)C6=O)CC4)ncc3Cl)ccc2n(C)c1=O (stereo not drawn) [compound 93, 2-((6-((5-chloro-2-(4-(2-(2-(2-(3-(2-(2-(2,6-dioxopiperidin-3-yl)-1-oxoisoindolin-5-yl)phenoxy)propoxy)ethoxy)ethoxy)ethoxy)piperidin-1-yl)pyrimidin-4-yl)amino)-1-methyl-2-oxo-1,2-dihydroquinolin-3-yl)oxy)-N-methylacetamide]
16 | 50 to 100 | CNC(=O)COc1cc2cc(Nc3nc(N4CCC(OCc5cccc(COCCOCCOCCOc6ccc7c(c6)CN(C6CCC(=O)NC6=O)C7=O)c5)CC4)ncc3Cl)ccc2n(C)c1=O (stereo not drawn) [compound 97, 2-((6-((5-chloro-2-(4-((3-((2-(2-(2-((2-(2,6-dioxopiperidin-3-yl)-1-oxoisoindolin-5-yl)oxy)ethoxy)ethoxy)ethoxy)methyl)benzyl)oxy)piperidin-1-yl)pyrimidin-4-yl)amino)-1-methyl-2-oxo-1,2-dihydroquinolin-3-yl)oxy)-N-methylacetamide]
17 | > 100 | CNC(=O)COc1cc2cc(Nc3nc(N4CCC(OCCOCCOCCOc5cccc(CCOc6ccc7c(c6)CN(C6CCC(=O)NC6=O)C7=O)c5)CC4)ncc3Cl)ccc2n(C)c1=O (stereo not drawn) [compound 100, 2-((6-((5-chloro-2-(4-(2-(2-(2-(3-(2-((2-(2,6-dioxopiperidin-3-yl)-1-oxoisoindolin-5-yl)oxy)ethyl)phenoxy)ethoxy)ethoxy)ethoxy)piperidin-1-yl)pyrimidin-4-yl)amino)-1-methyl-2-oxo-1,2-dihydroquinolin-3-yl)oxy)-N-methylacetamide]
18 | 10 to 50 | CNC(=O)COc1cc2cc(Nc3nc(N4CCN(CCCN5CCN(c6ccc7c(c6)CN(C6CCC(=O)NC6=O)C7=O)CC5)CC4)ncc3Cl)ccc2n(C)c1=O (stereo not drawn) [compound 103, 2-((6-((5-chloro-2-(4-(3-(4-(2-(2,6-dioxopiperidin-3-yl)-1-oxoisoindolin-5-yl)piperazin-1-yl)propyl)piperazin-1-yl)pyrimidin-4-yl)amino)-1-methyl-2-oxo-1,2-dihydroquinolin-3-yl)oxy)-N-methylacetamide]
